The results in this text go back to patent publication US12630529B2, “GCN2 modulator compounds” (ALESTA THERAPEUTICS BV, priority 2020, dated 2026).

Test [1] deals with HT29 cells. The test is described as follows: Proliferation and apoptosis of colorectal cancer cells (live-cell imaging). Format: cell-based. As to conditions: 10 μM, 64 μM arginine, up to 96 hours, vs untreated cells; for rate of apoptotic cell death: YO-PRO-1 uptake. Here is the method:
Proliferation and apoptosis of HT29 cells was determined in the presence of Compound 1 and Compound 2. Briefly, cells were seeded in 96-well flat bottom plates at 4,000 cells per well in 100 μL SILAC DMEM Flex media without phenol red, supplemented with 10% fetal bovine serum (FBS), 1 g/L glucose, 2 mM glutamine, 220 μM lysine, containing a physiological concentration of arginine (64 μM). After 24 hours, cells were treated with 10 μM vehicle control (Control; 0.1% DMSO), 10 μM Compound 1, or 10 μM Compound 2, together with 100 nM of fluorescent apoptosis stain (YO-PRO™-1 Iodide; Thermo Fisher) to detect apoptotic cells. Cells were placed in a live-cell imaging and analysis platform (IncuCyte ZOOM®; Essenbio) set up in a humidified incubator at 37° C. and the plates were scanned every 4 hours for up 96 hours, at 10× magnification to determine cell confluence and cell death. Experiments were performed in duplicate with 3 images collected per well and analyzed using live-cell imaging and analysis software (e.g., IncuCyte ZOOM® 2018A software; Essenbio).

The test system of test [2] is HT29 cells. Kind of test: Growth of tumor spheroids. The test is classed as cell-based. The note with it: 64 μM arginine, up to 120 hours, vs untreated spheroids. Here is the method:
The growth of tumor spheroids was evaluated following treatment of cells with Compound 1, Compound 2 and Compound 108. Briefly, HT29 cells were seeded at 5,000 cells/well in ultra-low attachment round bottom 96-well plates, in 100 μL SILAC DMEM Flex media without phenol red, supplemented with 10% fetal bovine serum (FBS), 1 g/L glucose, 2 mM glutamine, 220 μM lysine, and 64 μM arginine. The plates were centrifuged for 10 minutes at 125×g and put in a humidified incubator at 37° C. for 3 days before the onset of the experiment to allow spheroids to form.
Three days after seeding, 10 μM Compound 1, 10 μM Compound 2, 10 μM Compound 108 or 10 μM vehicle control (0.1% DMSO), were added together with 100 nM fluorescent apoptosis stain (e.g., YO-PRO™-1 Iodide; Thermo Fisher) to detect apoptotic cells and Nuclear-ID Red DNA Stain (1:100,000; ENZO Life Sciences) to detect live cells. Plates were placed in a live-cell imaging and analysis platform (e.g., IncuCyte ZOOM®; Essenbio) set up in a humidified incubator at 37° C. and scanned every 4 hours for up 120 hours, at 10× magnification, to determine relative spheroid size and cell death. Experiments were performed in quadruplicate and analyzed using live-cell imaging and analysis software (e.g., IncuCyte ZOOM® 2018A software; Essenbio).

A further test relates to CHOP (DDIT3) reporter. Kind of test: GCN2-induction of CHOP and apoptosis in 3T3 fibroblasts with CHOP (DDIT3) reporter construct. The test is classed as cell-based, murine. As to conditions: for GCN2 activation / GCN2-induced CHOP activation: murine 3T3 CHOP (mCherry) reporter fibroblasts, increasing concentrations, in the presence of halofuginone or histidinol; for apoptosis induced by halofuginone / late-stage apoptosis induced by histidinol: murine 3T3 WT cells; for apoptosis induced by halofuginone: co-treatment with halofuginone; for late-stage apoptosis induced by histidinol: co-treatment with histidinol. Here is the method: The CHOP construct comprised the […] (UTR) of mouse DDIT3 mRNA fused to a sequence encoding the fluorescent protein mCherry.
Cells were seeded at 5,000 cells per well in flat bottom 96-well plates in 100 μL DMEM low glucose media without phenol red, and supplemented with 10% FBS and 2 mM glutamine. After 24 hours, the exemplary compounds, and either tunicamycin, halofuginone, or histidinol, were added together with 100 nM of fluorescent apoptosis stain (YO-PRO™-1 Iodide; Thermo Fisher) to detect apoptotic cells. Cells were placed in a live-cell imaging and analysis platform (IncuCyte ZOOM®; Essenbio) set up in a humidified incubator at 37° C. and the plates were scanned every 4 hours for up 120 hours, at 10× magnification, to determine cell confluence and cell death. Experiments were performed in duplicate with 3 images collected per well, and analyzed using live-cell imaging and analysis software (IncuCyte ZOOM® 2018A software; Essenbio).

Test [3] addresses T1, GCN2 (Homo sapiens, UniProt Q9P2K8). Kind of test: GCN2 enzyme inhibition assay (Reaction Biology EIF2AK4/GCN2 kinase assay). Format: biochemical. Also on record: purchased Reaction Biology Corp. The note with it: human GCN2 enzyme activity, 10 μM ATP, 20 μM peptide substrate. Here is the method: In order to validate the above results, human GCN2 enzyme activity was measured in Reaction Biology Corp (EIF2AK4/GCN2 kinase assay). Compounds were tested in 5-dose IC50 mode for non-active compounds and 10-dose IC50 mode for active compounds with 3-fold serial dilution starting at 30 μM and 0.1 μM respectively. Control compound Staurosporine was tested in 10-dose IC50 mode with 4-fold serial dilution starting at 20 μM. Reactions were carried out at 10 μM ATP using 20 μM peptide substrate [GRSRSRSRSR]. For IC50 values: +++ refers to <10 nM of test compound; ++ refers to 10 nM to 100 nM of test compound; + refers to 100 nM to 1,000 nM of test compound and − refers to >1,000 nM of test compound.

Test [4] has as its target T1, GCN2. The test is described as follows: GCN2 activation induced by arginine starvation (Western blot). As to conditions: HT29 and HCT116 colorectal cancer cell lines, 24 hours. Format: cell-based. On the set-up: endogenous in cells; host or cells: HT29 and HCT116. The procedure:
Colorectal cancer cell lines HT29 and HCT116 were seeded at a concentration of 100×10^3 cells per well in 6 well plates, in SILAC DMEM Flex media supplemented with 10% fetal bovine serum, 1 g/L glucose, 2 mM glutamine, 800 μM lysine, and various concentrations of arginine in the absence or presence of Compound 1 and Compound 2 GCN2 inhibitors. Cells were cultured for 24 hours.
Following 24 hours of culture, expression of phosphorylated GCN2 (P-GCN2) and alpha-actinin loading control was assessed by Western blot. Briefly, cells were washed with cold PBS and dissolved in cell lysis buffer containing 1% Triton, supplemented with protease inhibitors and phosphatase inhibitors. All lysates were freshly prepared and normalized using a BCA protein assay before addition of LDS sample buffer and denaturation by boiling the samples for 5 minutes at 95° C. Proteins were separated on 4-12% Bis-Tris protein gels in MOPS SDS buffer and electrophoresis was performed (e.g., Novex NuPAGE® Gel Electrophoresis Systems; Invitrogen). Transfer of the protein samples was performed (e.g., using the Mini Trans-Blot Cell® system; Bio-Rad) with 0.45 μM pore Nitrocellulose/Filter paper sandwiches and transfer buffer at 350 mA for 90 minutes at 4° C. Membranes were blocked for 1 hour with 4% BSA in TBS-Tween at room temperature and incubated with 1:1,000 dilutions of anti-GCN2, phospho-GCN2, α-actinin1, and/or p21 (Waf/Cip1) antibodies overnight at 4° C. Afterwards, membranes were washed 3 times with TBS-Tween and incubated with HRP-conjugated secondary antibodies at 1:20,000 dilution for 1 hour at room temperature.

T1 sequence (Q9P2K8 whole entry): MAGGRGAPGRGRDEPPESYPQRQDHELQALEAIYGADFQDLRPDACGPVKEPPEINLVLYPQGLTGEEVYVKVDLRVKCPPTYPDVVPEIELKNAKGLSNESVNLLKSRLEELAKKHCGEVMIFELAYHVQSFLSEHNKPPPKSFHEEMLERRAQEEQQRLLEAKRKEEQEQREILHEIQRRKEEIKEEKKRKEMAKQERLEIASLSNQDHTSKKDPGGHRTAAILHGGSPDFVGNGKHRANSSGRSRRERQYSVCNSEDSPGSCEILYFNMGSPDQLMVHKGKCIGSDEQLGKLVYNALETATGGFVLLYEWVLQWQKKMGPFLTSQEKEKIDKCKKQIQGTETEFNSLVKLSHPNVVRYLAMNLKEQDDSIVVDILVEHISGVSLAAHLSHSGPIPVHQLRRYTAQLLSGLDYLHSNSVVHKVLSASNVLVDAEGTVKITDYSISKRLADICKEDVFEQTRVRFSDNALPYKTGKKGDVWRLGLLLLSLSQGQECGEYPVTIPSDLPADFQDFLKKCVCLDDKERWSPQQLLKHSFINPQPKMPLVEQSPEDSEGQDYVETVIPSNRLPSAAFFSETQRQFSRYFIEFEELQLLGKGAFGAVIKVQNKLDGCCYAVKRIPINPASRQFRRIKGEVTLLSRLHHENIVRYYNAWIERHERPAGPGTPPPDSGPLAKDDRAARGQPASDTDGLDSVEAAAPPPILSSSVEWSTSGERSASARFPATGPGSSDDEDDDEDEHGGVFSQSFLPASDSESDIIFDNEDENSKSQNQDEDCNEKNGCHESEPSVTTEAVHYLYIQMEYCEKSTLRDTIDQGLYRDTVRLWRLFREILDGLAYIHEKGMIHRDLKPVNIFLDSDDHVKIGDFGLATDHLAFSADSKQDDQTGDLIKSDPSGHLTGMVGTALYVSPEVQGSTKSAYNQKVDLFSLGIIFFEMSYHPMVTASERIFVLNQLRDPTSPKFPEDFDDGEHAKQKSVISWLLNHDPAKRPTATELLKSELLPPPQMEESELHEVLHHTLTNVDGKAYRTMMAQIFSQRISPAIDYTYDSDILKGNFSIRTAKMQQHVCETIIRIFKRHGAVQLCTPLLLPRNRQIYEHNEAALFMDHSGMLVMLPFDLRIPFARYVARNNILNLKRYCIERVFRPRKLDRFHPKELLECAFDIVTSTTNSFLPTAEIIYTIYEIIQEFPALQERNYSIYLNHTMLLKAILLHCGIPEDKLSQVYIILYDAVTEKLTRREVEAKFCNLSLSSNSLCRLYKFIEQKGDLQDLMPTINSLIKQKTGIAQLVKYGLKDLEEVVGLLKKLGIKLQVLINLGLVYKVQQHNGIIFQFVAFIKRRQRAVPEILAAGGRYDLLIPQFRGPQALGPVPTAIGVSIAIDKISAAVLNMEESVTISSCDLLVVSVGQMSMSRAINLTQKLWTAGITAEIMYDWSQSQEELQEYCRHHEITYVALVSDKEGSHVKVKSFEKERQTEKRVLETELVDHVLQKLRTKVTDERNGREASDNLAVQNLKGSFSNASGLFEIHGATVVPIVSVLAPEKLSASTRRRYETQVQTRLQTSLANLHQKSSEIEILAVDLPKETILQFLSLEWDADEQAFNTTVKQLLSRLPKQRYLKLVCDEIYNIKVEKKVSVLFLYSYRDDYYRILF

Usually IC50 stands for the concentration that gives 50% inhibition. As for `Nc1ncc2cc(-c3c(F)ccc(NS(=O)(=O)c4cc(Cl)ccc4Cl)c3F)ccc2n1` [Compound 2], in the test on HT29 cells [1], the “rate of apoptotic cell death” value was “increased rate of apoptotic cell death” and the “cell density / confluence” value is reported as “grew less dense”. Moreover, in the test on HT29 cells [2], the “spheroid size and viability” value is “relative reduction in spheroid size and viability in a dose-dependent manner”. In the test with CHOP (DDIT3) reporter, the “GCN2 activation / GCN2-induced CHOP activation” value is “reduced GCN2 activation”, the “apoptosis induced by halofuginone” value was “effectively inhibited apoptosis” and the “late-stage apoptosis induced by histidinol” value is “increased late-stage apoptosis”. At GCN2 [3], this molecule displayed an IC50 of less than 10 nM. For the same molecule, at GCN2 [4], the “activation of GCN2 (P-GCN2 expression) upon arginine depletion” value is given as “prevented the activation of GCN2 upon arginine depletion” and the p21 expression result is reported as “p21 expression is induced”.

As to `COc1ncc(Cl)cc1S(=O)(=O)Nc1ccc(F)c(-c2ccc3nc(N)ncc3c2)c1F` [Compound 1], in the test on HT29 cells [1], the “rate of apoptotic cell death” value is reported as “increased rate of apoptotic cell death” and the “cell density / confluence” value is listed as “grew less dense”. Also, the “spheroid size and viability” value in the test on HT29 cells [2] is “relative reduction in spheroid size and viability in a dose-dependent manner”. For the same molecule, in the test with CHOP (DDIT3) reporter, the “GCN2 activation / GCN2-induced CHOP activation” value is “reduced GCN2 activation”, the “apoptosis induced by halofuginone” value is “effectively inhibited apoptosis” and the “late-stage apoptosis induced by histidinol” value is recorded as “increased late-stage apoptosis”. At GCN2 [3], this molecule had an IC50 of 10 to 100 nM. Besides, on GCN2 [4], the “activation of GCN2 (P-GCN2 expression) upon arginine depletion” value is listed as “prevented the activation of GCN2 upon arginine depletion” and the p21 expression result is recorded as “p21 expression is induced”.
